How the values were obtained:
[1] = biological target: T1, cysteine-less RGS14 RGS-box protein (Homo sapiens, UniProt O43566, C100S/C183S); test: Transcreener GDP RGScreen assay with cysteine-less RGS14 RGS-box; format: biochemical; details: range given jointly for cysteine-less RGS14 and RGS12 proteins; read-out: estimated IC50, cysteine-less RGS14 RGS-box
T1 construct: human RGS14 RGS-box (aa 46–195 of UniProt O43566); host or cells: E. coli
T1 sequence (O43566 46-195 C100S/C183S): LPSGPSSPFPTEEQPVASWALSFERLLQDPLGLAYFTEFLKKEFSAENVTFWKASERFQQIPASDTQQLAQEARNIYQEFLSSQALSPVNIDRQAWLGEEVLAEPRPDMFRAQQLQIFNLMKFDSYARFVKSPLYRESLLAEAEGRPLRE
Excerpt: Given the earlier experience with screening hit CCG-4986 being a covalent modifier of RGS4 cysteine residues ([35]), we sought to exclude protein-thiol reactivity as a potential mechanism of action of the active compounds derived from the AtomNet virtual screening effort ([55]) and SAR campaign follow-ups. To address this possibility and screen out thiol-reactive hits, cysteine-lacking versions of recombinant proteins spanning the RGS-boxes of RGS14 and RGS12 were purified from E. coli cultures.
Reagents and protocols for the fluorescence anisotropy-based Transcreener GDP RGScreen assay using a rate-altered, double point-mutant, recombinant Gαi1 protein have been extensively described previously ([43], [44]); reactions were always performed so that total GTP converted over the time course was consistently less than 10% of reaction maximum input. Specific methods for its application in assessing RGS14 and RGS12 GAP activity are summarized as follows. Open-reading frames (ORFs) encoding wild-type versions of the human RGS14 RGS-box (aa 46–195 of UniProt O43566) and human RGS12 RGS-box (aa 695–843 of UniProt O14924) were each sub-cloned in-frame with an N-terminal hexahistidine (His6) expression tag in the plasmid pET30a, expressed in E. coli cultures, and then purified by nickel-nitriloacetate (Ni-NTA) and size-exclusion (Superdex 200) column chromatographies by GenScript using previously described methods ([35]). […]
Supplementary Figure S5. […] (A,B) Recombinant, cysteine residue-lacking (“-cys”) RGS14 RGS-box protein (panel A) and cysteine residue-lacking RGS12 RGS-box protein ([…]) were both observed, in a concentration-dependent fashion (indicated in ng/µL by color), to increase steady-state GDP production by 0.5 ng/µL Gai1(DM) protein in a 20 µL final reaction volume, as measured by the Transcreener® GDP-detection RGScreen™ assay and detected by the change in polarization (ΔmP) at each indicated time point (“enz” = Gai1(DM) protein a.k.a. […]

[2] = biological target: T2, RGS14 RGS-box (GAP activity on wild-type Gαi1) (Homo sapiens, UniProt O43566); test: Single-turnover [γ-33P]GTP hydrolysis assay of RGS-box GAP activity; format: biochemical; details: wild-type Gαi1, concentration-dependent
T2 sequence (O43566 67-184 limits assumed): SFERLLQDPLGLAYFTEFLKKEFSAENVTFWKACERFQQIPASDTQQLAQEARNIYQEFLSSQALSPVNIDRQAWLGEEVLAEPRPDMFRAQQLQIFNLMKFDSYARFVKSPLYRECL
Excerpt: To further evaluate the functional activity of these triazolothiadiazine derivatives, and especially to eliminate concerns of misascribing GAP-inhibitory activity to potential assay interference, we tested two representative compounds—Z55660043 and Z55627844—in the gold-standard single-turnover radioactive GTP hydrolysis assay ([7], [58]) (Fig. 6).
The single-turnover radiolabeled-GTP hydrolysis assay is the gold standard assay for RGS-box GAP activity, first described using [γ -^32P]GTP by Berman et al. ([7]) and recently modified for modern performance ([91], [92], [93], [94]) to use readily available [γ-^33P]GTP substrate and perchloric acid quenching. The assay was performed by first pre-loading wild-type (WT) Gα protein (i.e., 750 nM purified, recombinant, wild-type-sequence human Gαi1 protein) with a slight excess (1 μM) of [γ-^33P]GTP for 15 min at 30 °C. Assay initiation involved adding purified recombinant RGS protein previously pre-incubated for 30 min at 30 °C with a candidate inhibitor. […] Supernatant aliquots were then added to liquid scintillation fluid and [^33P]-Pi content (i.e., hydrolyzed GTP) was quantified with a scintillation counter with an appropriate β-transmission window.

## COc1ccc(OCc2nnc3n2N=C(c2ccc(OC)c(OC)c2)CS3)cc1 [Z55660043, 6-(3,4-dimethoxyphenyl)-3-[(4-methoxy-phenoxy)methyl]-5H-[1,2,4]triazolo[3,4-b][1,3,4]thiadiazine]
[1]
  IC50: 10 to 19 µM
[2]
  inhibition of RGS14 RGS-box-mediated acceleration of [γ-33P]GTP hydrolysis: inhibit RGS14 RGS-box-mediated acceleration

Reference: PMC12495443, “Developing inhibitors of the guanosine triphosphate hydrolysis accelerating activity of Regulator of G protein Signaling-14 [drawing 1]” (The Journal of Biological Chemistry, 2025)
